Measured values published in the NIST ThermoML archive (doi:10.1016/j.fluid.2006.05.027).
Numbers after ± are expanded uncertainties.

Assay: excess molar enthalpy (molar enthalpy of mixing); xn = mol fraction of the nth substance listed
Details: Fluid (supercritical or subcritical phases)

C=C(C)C1CC=C(C)CC1 (stereo not given) [1-methyl-4-(1-methylethenyl)cyclohexene] + O=C=O
excess molar enthalpy [kcal/mol]
Details	308.15 K	313.15 K	323.15 K
7640 kPa, x2 = 0.105	–	–	-0.125 ± 0.0055
7640 kPa, x2 = 0.129	-0.105 ± 0.00478	–	-0.151 ± 0.00669
7640 kPa, x2 = 0.152	–	–	-0.188 ± 0.00765
7640 kPa, x2 = 0.175	–	–	-0.21 ± 0.00837
7640 kPa, x2 = 0.196	-0.174 ± 0.00717	–	-0.241 ± 0.00956
7640 kPa, x2 = 0.218	–	-0.233 ± 0.00884	–
7640 kPa, x2 = 0.238	-0.211 ± 0.00837	-0.258 ± 0.0098	-0.31 ± 0.012
7640 kPa, x2 = 0.277	-0.245 ± 0.00932	-0.287 ± 0.011	-0.361 ± 0.0136
7640 kPa, x2 = 0.314	-0.271 ± 0.0103	–	–
7640 kPa, x2 = 0.349	–	-0.379 ± 0.0143	–
7640 kPa, x2 = 0.382	-0.329 ± 0.0124	–	-0.527 ± 0.0191
7640 kPa, x2 = 0.413	-0.374 ± 0.0141	-0.476 ± 0.0177	-0.555 ± 0.0201
7640 kPa, x2 = 0.442	-0.391 ± 0.0146	–	-0.594 ± 0.0215
7640 kPa, x2 = 0.47	–	-0.553 ± 0.0201	-0.644 ± 0.0232
7640 kPa, x2 = 0.492	–	-0.577 ± 0.0213	–
7640 kPa, x2 = 0.497	-0.435 ± 0.0163	–	–
7640 kPa, x2 = 0.522	-0.466 ± 0.0172	–	-0.725 ± 0.0263
7640 kPa, x2 = 0.546	–	-0.668 ± 0.0239	–
7640 kPa, x2 = 0.569	–	-0.697 ± 0.0239	-0.779 ± 0.0287
7640 kPa, x2 = 0.591	-0.533 ± 0.0196	–	-0.799 ± 0.0287
7640 kPa, x2 = 0.596	–	-0.755 ± 0.0287	–
7640 kPa, x2 = 0.613	–	–	-0.831 ± 0.0287
7640 kPa, x2 = 0.633	–	–	-0.868 ± 0.0311
7640 kPa, x2 = 0.652	-0.58 ± 0.0213	-0.832 ± 0.0311	-0.87 ± 0.0311
7640 kPa, x2 = 0.671	–	–	-0.817 ± 0.0287
7640 kPa, x2 = 0.697	-0.633 ± 0.0232	–	-0.755 ± 0.0263
7640 kPa, x2 = 0.722	–	–	-0.694 ± 0.0239
7640 kPa, x2 = 0.738	–	-0.957 ± 0.0335	-0.652 ± 0.0237
7640 kPa, x2 = 0.753	–	–	-0.613 ± 0.0225
7640 kPa, x2 = 0.775	–	-1.01 ± 0.0359	-0.559 ± 0.0206
7640 kPa, x2 = 0.808	-0.749 ± 0.0263	-1.03 ± 0.0359	-0.472 ± 0.0177
7640 kPa, x2 = 0.839	–	–	-0.394 ± 0.0151
7640 kPa, x2 = 0.845	–	-1.07 ± 0.0382	–
7640 kPa, x2 = 0.868	–	-0.985 ± 0.0382	-0.326 ± 0.0131
7640 kPa, x2 = 0.878	-0.814 ± 0.0287	–	–
7640 kPa, x2 = 0.894	–	–	-0.257 ± 0.0112
7640 kPa, x2 = 0.918	–	-0.617 ± 0.0263	-0.191 ± 0.00956
7640 kPa, x2 = 0.962	–	–	-0.0853 ± 0.00669
7640 kPa, x2 = 0.97	-0.848 ± 0.0311	–	–
7640 kPa, x2 = 0.972	-0.842 ± 0.0311	–	–
7640 kPa, x2 = 0.985	–	-0.153 ± 0.0115	–
10000 kPa, x2 = 0.058	–	-0.00359 ± 0.00143	0.00287 ± 0.00143
10000 kPa, x2 = 0.111	0.0136 ± 0.00143	-0.00526 ± 0.00215	–
10000 kPa, x2 = 0.136	0.0134 ± 0.00143	-0.00741 ± 0.00215	–
10000 kPa, x2 = 0.16	–	–	-0.0208 ± 0.00215
10000 kPa, x2 = 0.207	0.0184 ± 0.00215	-0.0117 ± 0.00215	-0.0535 ± 0.00335
10000 kPa, x2 = 0.25	0.0182 ± 0.00239	-0.0151 ± 0.00239	-0.0853 ± 0.0043
10000 kPa, x2 = 0.29	–	-0.0182 ± 0.00263	-0.117 ± 0.0055
10000 kPa, x2 = 0.328	0.0194 ± 0.00287	–	–
10000 kPa, x2 = 0.358	–	–	-0.18 ± 0.00765
10000 kPa, x2 = 0.363	–	-0.0294 ± 0.00406	–
10000 kPa, x2 = 0.38	–	-0.0392 ± 0.00359	–
10000 kPa, x2 = 0.397	0.0146 ± 0.00311	–	–
10000 kPa, x2 = 0.428	0.011 ± 0.00359	-0.0416 ± 0.00406	-0.248 ± 0.0098
10000 kPa, x2 = 0.486	0.0043 ± 0.00382	–	-0.301 ± 0.0115
10000 kPa, x2 = 0.513	–	-0.065 ± 0.00621	–
10000 kPa, x2 = 0.526	–	-0.0743 ± 0.00598	–
10000 kPa, x2 = 0.538	–	–	-0.357 ± 0.0136
10000 kPa, x2 = 0.548	-0.00741 ± 0.00406	–	–
10000 kPa, x2 = 0.562	-0.00908 ± 0.00454	-0.082 ± 0.00598	-0.383 ± 0.0143
10000 kPa, x2 = 0.585	–	–	-0.402 ± 0.0151
10000 kPa, x2 = 0.627	–	-0.105 ± 0.00741	-0.437 ± 0.0163
10000 kPa, x2 = 0.666	-0.0354 ± 0.00502	-0.118 ± 0.00765	-0.473 ± 0.0172
10000 kPa, x2 = 0.71	-0.0492 ± 0.0055	-0.14 ± 0.0086	–
10000 kPa, x2 = 0.75	-0.0612 ± 0.00574	-0.15 ± 0.00884	-0.551 ± 0.0198
10000 kPa, x2 = 0.785	-0.0746 ± 0.00645	-0.173 ± 0.00956	–
10000 kPa, x2 = 0.801	–	–	-0.585 ± 0.0208
10000 kPa, x2 = 0.818	-0.0903 ± 0.00669	–	-0.604 ± 0.0215
10000 kPa, x2 = 0.875	-0.105 ± 0.00741	-0.198 ± 0.0098	-0.627 ± 0.0225
10000 kPa, x2 = 0.923	-0.105 ± 0.00741	-0.199 ± 0.00837	-0.612 ± 0.0225
10000 kPa, x2 = 0.94	-0.0985 ± 0.00765	–	–
10000 kPa, x2 = 0.964	-0.0803 ± 0.00765	-0.146 ± 0.00645	–
10000 kPa, x2 = 0.972	–	–	-0.41 ± 0.0184
10000 kPa, x2 = 0.983	-0.0495 ± 0.00765	–	–
10000 kPa, x2 = 0.986	–	-0.0834 ± 0.0055	-0.243 ± 0.0263
